Measured values taken from patent US10875837B2, “Inhibitors of the fibroblast growth factor receptor” (BLUEPRINT MEDICINES CORPORATION, priority 2013, dated 2020).

What was measured:
[1] = tested on: pMAPK (Thr202/Tyr204) in MDA-MB453 or DMS 114 cells; experiment: Detection of pMAPK (Thr202/Tyr204) using Alpha ELISA (pERK alphaLISA); type: cell-based; conditions: 1 hr incubation with compound; cell line not given (MDA-MB453 or DMS 114)
Description: Detection of pMAPK (Thr202/Tyr204) Using Alpha ELISA
MDA-MB453 or DMS 114 cells were plated in 96-well cell culture plates at a density of 1×10^5 cells or 3×10^4 cells, respectively. Cells were allowed to attach, and growth media was replaced with serum free media. Compounds were added at the indicated concentrations. Following 1 hr incubation in the presence of compound, cells were collected. For the DMS 114 cells, 100 ng/mL FGF2 was added for 10 min prior to cell collection. Cell lysates were prepared and processed according to manufacturer instruction (AlphaScreen® SureFire™ Phospho-ERK 1/2 Kit (Perkin Elmer).

wild type FGFR-4 = biological target: T1, wild type FGFR-4 (Homo sapiens, UniProt P22455); experiment: FGFR-4 wild type assay at Km (Caliper electrophoretic mobility shift); type: biochemical; conditions: wild type FGFR-4, 400 uM ATP, 25 C, 90 minutes; read-out: INH-FGFR4
T1 construct: purchased Carna Biosciences, Inc
Description: Biochemical Activity Assessment In order to assess the activity of chemical compounds against the relevant kinase of interest, the Caliper LifeSciences electrophoretic mobility shift technology platform is utilized. Fluorescently labeled substrate peptide is incubated in the presence dosed levels of compounds, a set concentration of kinase and of ATP, so that a reflective proportion of the peptide is phosphorylated. At the end of the reaction, the mix of phosphorylated (product) and non-phosphorylated (substrate) peptides are passed through the microfluidic system of the Caliper LabChip® EZ Reader II, under an applied potential difference. The presence of the phosphate group on the product peptide provides a difference in mass and charge between the product peptide and the substrate peptide, resulting in a separation of the substrate and product pools in the sample. As the pools pass the LEDS within the instrument, these pools are detected and resolved as separate peaks. The ratio between these peaks therefore reflects the activity of the chemical matter at that concentration in that well, under those conditions.
FGFR-4 wild type assay at Km: In each well of a 384-well plate, 0.5 ng/ul of wild type FGFR-4 (Carna Biosciences, Inc.) was incubated in a total of 12.5 ul of buffer (100 mM HEPES pH 7.5, 0.015% Brij 35, 10 mM MgCl2, 1 mM DTT) with 1 uM CSKtide (5-FAM-KKKKEEIYFFFG-NH2) and 400 uM ATP at 25 C for 90 minutes in the presence or absence of a dosed concentration series of compound (1% DMSO final concentration). The reaction was stopped by the addition of 70 ul of Stop buffer (100 mM HEPES pH 7.5, 0.015% Brij 35, 35 mM EDTA and 0.2% of Coating Reagent 3 (Caliper Lifesciences)). The plate was then read on a Caliper LabChip® EZ Reader II (protocol settings: −1.9 psi, upstream voltage −700, downstream voltage −3000, post sample sip 35 s).

T1 sequence (P22455 22-802): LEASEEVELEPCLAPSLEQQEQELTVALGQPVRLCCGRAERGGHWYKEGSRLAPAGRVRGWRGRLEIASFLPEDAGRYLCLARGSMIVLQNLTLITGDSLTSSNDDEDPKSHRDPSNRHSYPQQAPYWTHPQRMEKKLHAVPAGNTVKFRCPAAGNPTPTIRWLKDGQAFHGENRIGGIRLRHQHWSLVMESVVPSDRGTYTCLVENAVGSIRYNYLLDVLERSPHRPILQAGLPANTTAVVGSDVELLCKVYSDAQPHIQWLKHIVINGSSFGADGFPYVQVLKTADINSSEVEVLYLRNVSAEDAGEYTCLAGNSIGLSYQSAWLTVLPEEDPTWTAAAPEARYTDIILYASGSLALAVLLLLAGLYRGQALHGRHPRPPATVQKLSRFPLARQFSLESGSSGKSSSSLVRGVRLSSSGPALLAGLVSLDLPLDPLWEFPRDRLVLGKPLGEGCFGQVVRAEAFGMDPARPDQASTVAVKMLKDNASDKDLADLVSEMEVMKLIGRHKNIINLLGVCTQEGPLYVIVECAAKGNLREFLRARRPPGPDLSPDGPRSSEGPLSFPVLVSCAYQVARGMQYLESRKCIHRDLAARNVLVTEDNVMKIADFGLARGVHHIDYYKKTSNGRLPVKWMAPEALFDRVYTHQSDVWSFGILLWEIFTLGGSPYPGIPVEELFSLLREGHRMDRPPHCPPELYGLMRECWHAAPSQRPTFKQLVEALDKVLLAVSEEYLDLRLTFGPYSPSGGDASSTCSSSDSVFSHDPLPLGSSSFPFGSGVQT

| SMILES | IC50 [1] | IC50 (wild type FGFR-4) |
| --- | --- | --- |
| C=CC(=O)N[C@H]1COC[C@H]1Nc1ncc2cc(-c3c(Cl)c(OC)cc(OC)c3Cl)cc(Cl)c2n1 [Compound 54] | < 0.01 µM | < 0.01 µM |
| C=CC(=O)N[C@H]1COC[C@H]1Nc1ncc2cc(-c3c(Cl)c(OC)cc(OC)c3Cl)c(Cl)cc2n1 [Compound 55] | < 0.01 µM | < 0.01 µM |
| C=CC(=O)NC1CN(C(=O)COC)CC1Nc1ncc2cc(-c3c(Cl)c(OC)cc(OC)c3Cl)ccc2n1 (stereo not drawn) [Compound 85] | 0.01 to 0.1 µM | < 0.01 µM |
| C#CC(=O)N[C@H]1CCC[C@H]1Nc1ncc2cc(-c3cc(C(=O)NC4CC4)ccc3C)ccc2n1 [Compound 7] | – | 0.01 to 0.1 µM |
| C=CC(=O)N[C@H]1CCC[C@H]1Nc1ncc2cc(-c3c(Cl)c(OC)cc(OC)c3Cl)cc(F)c2n1 [Compound 45] | 0.01 to 0.1 µM | 0.01 to 0.1 µM |
| C#CC(=O)N[C@H]1CCC[C@H]1Nc1ncc2cc(-c3c(Cl)ccc(OC)c3F)ccc2n1 [Compound 4] | – | 0.01 to 0.1 µM |
| C=CC(=O)N[C@H]1CCOC[C@H]1Nc1ncc2c(F)c(-c3c(Cl)c(OC)cc(OC)c3Cl)ccc2n1 [Compound 50] | – | 0.01 to 0.1 µM |
| C=CC(=O)N[C@H]1CCOC[C@H]1Nc1ncc2cc(-c3c(Cl)c(OC)cc(OC)c3Cl)c(F)cc2n1 [Compound 51] | < 0.01 µM | < 0.01 µM |
| C=CC(=O)N[C@H]1CCCC[C@H]1Nc1ncc2nc(-c3c(Cl)c(OC)cc(OC)c3Cl)c(=O)n(CC)c2n1 [Compound 78] | – | 0.1 to 1 µM |
| C=CC(=O)N[C@@H]1CCN(C(C)=O)C[C@@H]1Nc1ncc2cc(-c3c(Cl)c(OC)cc(OC)c3Cl)ccc2n1 [Compound 69] | – | 0.1 to 1 µM |
| C=CC(=O)N[C@H]1CCN(C(C)=O)C[C@H]1Nc1ncc2cc(-c3c(Cl)c(OC)cc(OC)c3Cl)ccc2n1 [Compound 70] | – | 0.1 to 1 µM |
| C=CC(=O)N[C@H]1CCN(C(=O)OC(C)(C)C)C[C@H]1Nc1ncc2cc(-c3c(Cl)c(OC)cc(OC)c3Cl)ccc2n1 [Compound 92] | – | > 1 µM |
| C=CC(=O)N[C@H]1COCC1Nc1ncc2cc(-c3cc(OC)cc(OC)c3Cl)ccc2n1 (stereo partly drawn) [Compound 8] | – | 0.01 to 0.1 µM |
| C=CC(=O)N[C@H]1CN(C(=O)CN)C[C@H]1Nc1ncc2cc(-c3c(Cl)c(OC)cc(OC)c3Cl)ccc2n1 (racemic) [Compound 74] | 0.1 to 1 µM | 0.01 to 0.1 µM |
| C#CC(=O)N[C@H]1CCC[C@H]1Nc1ncc2cc(-c3cc(C(=O)NC4CC4)c(F)cc3Cl)ccc2n1 [Compound 30] | – | 0.01 to 0.1 µM |
| C#CC(=O)N[C@H]1CCC[C@H]1Nc1ncc2cc(-c3c(Cl)ccc(OC)c3Cl)ccc2n1 [Compound 5] | – | 0.01 to 0.1 µM |
| C=CC(=O)N[C@H]1CN(C(C)=O)C[C@H]1Nc1ncc2cc(-c3c(Cl)c(OC)cc(OC)c3Cl)ccc2n1 [Compound 56, N-((3S,4R)-1-acetyl-4-((6-(2,6-dichloro-3,5-dimethoxyphenyl)quinazolin-2-yl)amino)pyrrolidin-3-yl)acrylamide] | < 0.01 µM | < 0.01 µM |
| C=CC(=O)N[C@H]1CCOC[C@H]1Nc1cc2c(cn1)cc(-c1c(Cl)c(OC)cc(OC)c1Cl)c(=O)n2C [Compound 64] | < 0.01 µM | < 0.01 µM |
| C=CC(=O)N[C@H]1CC[C@H](C(N)=O)C[C@H]1Nc1ncc2cc(-c3c(Cl)c(OC)cc(OC)c3Cl)ccc2n1 (racemic) [Compound 72] | – | 0.1 to 1 µM |
| C=CC(=O)N[C@H]1CCOC[C@H]1Nc1ncc2cc(-c3c(Cl)c(OC)cc(OC)c3Cl)cnc2n1 [Compound 44] | 0.01 to 0.1 µM | 0.01 to 0.1 µM |
| C=CC(=O)N[C@H]1CN(C(=O)COC)C[C@H]1Nc1ncc2cc(-c3c(Cl)c(OC)cc(OC)c3Cl)ccc2n1 [Compound 86] | < 0.01 µM | < 0.01 µM |
| C=CC(=O)N[C@H]1CCOC[C@H]1Nc1ncc2cc(-c3c(Cl)c(OC)cc(OC)c3Cl)ccc2n1 [Compound 40, N-((3S,4S)-3-((6-(2,6-dichloro-3,5-dimethoxyphenyl)quinazolin-2-yl)amino)tetrahydro-2H-pyran-4-yl)acrylamide] | < 0.01 µM | < 0.01 µM |
